Laboratory results reported in patent US20240025891A1 (Celgene Corporation, priority 2020, published 2024).

System: Onchocerca gutturosa adult male worms
Assay: Onchocerciasis in vitro screening model Onchocerca gutturosa (worm motility score and MTT/formazan colorimetry)
Settings: Onchocerca gutturosa, read-out: O. gutt Act class
Description: Onchocerciasis: In Vitro Screening Model Onchocerca gutturosa
Parasite and cell cultures. Onchocerca gutturosa adult male worms were obtained by dissection from the nuchal ligament connective tissues of naturally infected cattle, from Gambia, W Africa.
The worms were maintained for at least 24 h in culture before use in Eagles Minimum Essential Medium with Earl's Salts (Gibco, UK)+10% heat inactivated new born calf serum (Gibco, UK)+antibiotic cover of 200 units/ml penicillin, 200 μg/ml streptomycin and 0.5 μg/ml amphotericin B (Sigma, UK). Only normally active specimens were used in the test. All cultures and assays were conducted at 37° C. under an atmosphere of 5% CO2 in air.
Drug sensitivity assays. Compound stock solutions were prepared in 100% DMSO unless otherwise indicated and diluted into the medium. Any unused compound stocks were stored at −20° C. Assays were performed in sterile 24-well (2 ml) plates (Falcon, UK).
Worms were then transferred individually to each well of the plate using fine forceps. Worm viability was assessed using 2 parameters: • The measurement of mean worm motility scores on a scale of 0 (immotile) to 10 (maximum) every 24 h, terminating at 120 h, using an Olympus inverted microscope. • The biochemical evaluation of worm viability using MTT/formazan colorimetry. The MTT assay was carried out after the last motility reading (120 h). Single intact worms were placed in each well of a 48-well plate (Falcon, UK) containing 0.5 ml of a solution consisting of 0.5 mg/ml MTT (Sigma UK) in phosphate buffered saline, and then incubated for 30 min at 37° C. The worms were removed, blotted carefully, and individually transferred to separate wells of a 96-well microtiter plate, each containing 200 μl of DMSO to solubilize the formazan. After 1 h the plate was gently agitated to disperse the color evenly and the absorbance value (optical density) of the resulting formazan solution was determined at 490 nm using a multi-well scanning spectrophotometer (Elisa-reader, Dynatech, UK). Inhibition of formazan formation was correlated with worm damage or death.
Primary screen. New compounds were usually tested at 1.25×10^−5 M. Also expressed in μg/ml.
Secondary screen. […] Serial 1 in 4 drug dilutions was carried out to find activity endpoint and EC50 values for motility reduction and inhibition of formazan formation were produced. EC50 values were determined using Excel or Origin V7 scientific graphing and data analysis software.

Molecule | IC50 [nM]
O=C(c1sc(Nc2cc(C(F)(F)F)ccn2)nc1-c1ccccn1)N1CCCC1 [Example 207, (4-(pyridin-2-yl)-2-(4-(trifluoromethyl)pyridin-2-ylamino)thiazol-5-yl)(pyrrolidin-1-yl)methanone] | < 200
CN(C)CCNC(=O)c1sc(Nc2cc(C(F)(F)F)ccn2)nc1-c1ccccn1 [Example 208, N-(2-(dimethylamino)ethyl)-4-(pyridin-2-yl)-2-(4-(trifluoro-methyl)pyridin-2-ylamino) thiazole-5-carboxamide] | < 200
CN(C)C(=O)c1sc(Nc2cc(C(F)(F)F)ccn2)nc1-c1ccccn1 [Example 209, N,N-dimethyl-4-(pyridin-2-yl)-2-(4-(trifluoromethyl)pyridin-2-ylamino) thiazole-5-carboxamide] | < 200
FC(F)(F)c1ccnc(Nc2nc(-c3ccccn3)c(CN3CCOCC3)s2)c1 [Example 210, 5-(morpholino-methyl)-4-(pyridin-2-yl)-N-(4-(trifluoromethyl)pyridin-2-yl) thiazol-2-amine] | < 200
O=C(NCC(F)(F)F)c1ccnc(Nc2nc(-c3ccccn3)c(CO)s2)c1 [Example 211, 2-(5-(hydroxy-methyl)-4-(pyridin-2-yl)thiazol-2-ylamino)-N-(2,2,2-trifluoroethyl) isonicotinamide] | 200 to 500
CC(=O)N(C)c1cc(C(F)(F)F)cnc1Nc1nc(-c2ccccn2)cs1 [Example 212, N-methyl-N-(2-(4-(pyridin-2-yl)thiazol-2-ylamino)-5-(trifluoro-methyl)pyridin-3-yl) acetamide] | < 200
c1ccc(-c2csc(Nc3ncccn3)n2)nc1 [Example 213, 4-(pyridin-2-yl)-N-(pyrimidin-2-yl)thiazol-2-amine] | 500 to 5000
c1ccc(Nc2nc(-c3ccccn3)cs2)nc1 [Example 214, N,4-di(pyridin-2-yl)thiazol-2-amine] | 200 to 500
Cc1cccnc1Nc1nc(-c2ccccn2)cs1 [Example 215, N-(3-methylpyridin-2-yl)-4-(pyridin-2-yl)thiazol-2-amine] | < 200
FC(F)(F)c1ccc(Nc2nc(-c3ccccn3)cs2)nc1 [Example 217, 4-(pyridin-2-yl)-N-(5-(trifluoromethyl)pyridin-2-yl)thiazol-2-amine] | 500 to 5000
COc1ccc(Nc2nc(-c3ccccn3)cs2)nc1 [Example 218, N-(5-methoxypyridin-2-yl)-4-(pyridin-2-yl)thiazol-2-amine] | 200 to 500
CC(C)c1ccc(Nc2nc(-c3ccccn3)cs2)nc1 [Example 219, N-(5-isopropylpyridin-2-yl)-4-(pyridin-2-yl)thiazol-2-amine] | < 200
Cc1ccnc(Nc2nc(-c3cc(C)ccn3)cs2)c1 [Example 220, N,4-bis(4-methylpyridin-2-yl)thiazol-2-amine] | < 200
c1ccc(-c2ccc(Nc3nc(-c4ccccn4)cs3)nc2)cc1 [Example 221, N-(5-phenylpyridin-2-yl)-4-(pyridin-2-yl)thiazol-2-amine] | < 200
Cc1ccnc(-c2csc(Nc3ncccc3C)n2)c1 [Example 222, N-(3-methylpyridin-2-yl)-4-(4-methylpyridin-2-yl)thiazol-2-amine] | 500 to 5000
Cc1ccnc(Nc2nc(-c3cc(Cl)ccn3)cs2)c1 [Example 223, 4-(4-chloropyridin-2-yl)-N-(4-methylpyridin-2-yl)thiazol-2-amine] | < 200
CCOc1ccnc(-c2csc(Nc3cc(C)ccn3)n2)c1 [Example 224, 4-(4-ethoxypyridin-2-yl)-N-(4-methylpyridin-2-yl)thiazol-2-amine] | 200 to 500
COc1ccc(-c2csc(Nc3cc(C)ccn3)n2)nc1 [Example 225, 4-(5-methoxypyridin-2-yl)-N-(4-methylpyridin-2-yl)thiazol-2-amine] | < 200
Cc1sc(Nc2ccccn2)nc1-c1ccccn1 [Example 227, 5-methyl-N,4-di(pyridin-2-yl)thiazol-2-amine] | < 200
COc1ccc(-c2cnc(Nc3cc(OC(C)C)ccn3)o2)nc1 [Example 228, N-(4-isopropoxy-pyridin-2-yl)-5-(5-methoxypyridin-2-yl)oxazol-2-amine] | 500 to 5000
c1ccc(-c2ccnc(Nc3ncc(-c4ccccn4)o3)c2)cc1 [Example 229, N-(4-phenylpyridin-2-yl)-5-(pyridin-2-yl)oxazol-2-amine] | 500 to 5000
Cc1ccnc(Nc2ncc(-c3ncccc3C)o2)c1 [Example 230, 5-(3-methylpyridin-2-yl)-N-(4-methylpyridin-2-yl)oxazol-2-amine] | 500 to 5000
CC(C)Oc1ccc(-c2cnc(Nc3ncccc3N(C)C)o2)nc1 [Example 231, N2-(5-(5-isopropoxy-pyridin-2-yl)oxazol-2-yl)-N3,N3-dimethyl-pyridine-2,3-diamine] | 500 to 5000
c1ccc(Nc2nc(-c3ccccn3)co2)nc1 [Example 232, N,4-di (pyridin-2-yl)oxazol-2-amine] | < 200
COc1ccc(-c2cc(Nc3cc(OC(C)C)ccn3)n(C)n2)nc1 [Example 233, 4-isopropoxy-N-(3-(5-methoxypyridin-2-yl)-1-methyl-1H-pyrazol-5-yl)pyridin-2-amine] | 500 to 5000
Cc1cccnc1Nc1cc(-c2ccc(OC3CCOCC3)cn2)nn1-c1ccccc1 [Example 234, 3-methyl-N-(1-phenyl-3-(5-(tetrahydro-2H-pyran-4-yloxy)pyridin-2-yl)-1H-pyrazol-5-yl)pyridin-2-amine] | 500 to 5000
Cc1ccnc(Nc2cc(-c3ncccc3C)nn2-c2ccccc2)c1 [Example 235, 4-methyl-N-(3-(3-methylpyridin-2-yl)-1-phenyl-1H-pyrazol-5-yl)pyridin-2-amine] | 500 to 5000
COc1ccc(-c2cc(Nc3cc(OC(C)C)ccn3)[nH]n2)nc1 [Example 236, 4-isopropoxy-N-(3-(5-methoxypyridin-2-yl)-1H-pyrazol-5-yl)pyridin-2-amine] | 500 to 5000
Cc1cccnc1Nc1cc(-c2ccc(OC3CCOCC3)cn2)n[nH]1 [Example 237, 3-methyl-N-(3-(5-(tetrahydro-2H-pyran-4-yloxy)pyridin-2-yl)-1H-pyrazol-5-yl)pyridin-2-amine] | 500 to 5000
c1ccc(-c2ccnc(Nc3cc(-c4ccccn4)n[nH]3)c2)cc1 [Example 238, 4-phenyl-N-(3-(pyridin-2-yl)-1H-pyrazol-5-yl)pyridin-2-amine] | < 200

Same assay, conditions: read-out: O. gutt Act class; O. gutturosa adult male worms in vitro

Molecule | IC50 [nM]
N- (cyclohexyl- methyl)- 4-(pyridin- 2-yl)-2-(4- (trifluoromethyl) pyridin-2- ylamino) thiazole-5- carboxamide [Example 202] | 500 to 5000
